Assay results taken from patent US4833155A, “3-(ω-(3,5,-di-t-butyl-4-hydroxyphenyl)-alkanoyl)pyrroles, and anti-inflammatory uses thereof” (Syntex (U.S.A.) Inc., priority 1986, dated 1989).
Where “and” joins values, the source holds several entries; their conditions need not be identical. Identical values can stand only once.

How the values were obtained:
[1] = test system: carrageenan-induced rat paw inflammation; experiment: Carrageenan-Induced Rat Paw Inflammation Assay "CI"; format: in vivo; conditions: oral
Experimental: Anti-inflammatory activity is determined by the Carrageenan-Induced Rat Paw Inflammation "CI" Assay, as is well accepted in the art. A modification of the assay described by Winter, et al., supra., is performed as follows:
Female albino rats (Sim: (SD)fbr) weighing 80-90 g receive the test materials orally in 1 ml aqueous solution at hour 0. One hour later (hr 1) 0.05 ml of a 1% solution (in aqueous 0.9% NaCl) of carrageenan is injected into the right hind paw to inflame the paw. The rats are sacrificed at hour 4, at which time both hind paws are removed and individually weighed. The percent increase in the weight of the inflamed paw over that of the opposite non-inflamed paw is calculated, and the results are reported according to the formula: [formula]

[2] = test system: lipoxygenase in human polymorphonuclear leukocytes; experiment: Human Polymorphonuclear Leukocyte Assay "HPMN" (lipoxygenase inhibition); format: cell-based; conditions: dose 36.0 μg
Experimental: Lipoxygenase inhibition activity is determined in vitro by the Human Polymorphonuclear Leukocyte ("HPMN") Assay, as is well accepted in the art. A modification of the assay described by Radmark, et al., supra., is performed as follows:
1. Preparation of the cells: The HPMNs are prepared from 200-300 ml of heparinized blood of healthy donors not receiving any medication for at least 7 days, using Ficol-Hypaque gradients. In general, HPMNs are greater than 90% pure and their viability is assessed by dye-exclusion to be better than 95%. The cells are suspended in phosphate buffered saline containing 1.0 mM CaCl2 (PH 7.4) and 0.1% ovalbumin, and used within 30 minutes.
2. Lipoxygenase Assay: Incubations are carried out at 37° C. for 5 minutes in a total volume of 0.2 ml arachidonic acid 1-C^14 (1×10^-4 M unless otherwise indicated, and approximately 300,000 cpm) is added to a suspension of cells (ca 5×10^6) to initiate the reaction. […]
1.6 Ml of deionized water is added, vortexed, and centrifuged. […] The eluates are collected in scintillation vials and 1.0 ml aliquot from each of the two fractions are counted for radioactivity in a Packard liquid scintillation counter. From the radioactivity data thus obtained percent yields of total lipoxygenase products in blanks, controls and drug-containing tubes are calculated as well as percent inhibition by the test compounds.

[3] = test system: phenylquinone-induced writhing; experiment: Phenylquinone-Induced Mouse Writhing Assay "PI" (cyclooxygenase-inhibition activity); format: in vivo
Experimental: Cyclooxygenase-inhibition activity is determined by the Phenylquinone-Induced Mouse Writhing "PI" Assay, as is well accepted in the art. A modification of the assay described by Hendershot, et al., supra., is performed as follows:
Phenylquinone solution is prepared as follows: 4 mg of phenylquinone is dissolved in 0.5 ml of absolute ethanol, after which 19.5 ml of warmed distilled water is added. When properly prepared, all of the phenylquinone solution remains in solution. The solution is used soon after preparation.
The test materials are administered in 0.2 ml of an aqueous vehicle at hour 0 to groups of eight male Swiss-Webster (Simonsen) mice weighing about 18-20 g. At either twenty (20 ) minutes or one hundred twenty (120) minutes later, 0.25 ml of a 0.02% solution of phenylquinone is injected into each animal, to induce writhing. The animals are then observed for the next ten (10) minutes for writhing responses, and the number of writhes per animal is recorded. The mean number of writhes is calculated for each treatment group and the results are expressed as percent inhibition of writhing responses relative to a control group receiving vehicle alone.

[4] = test system: arachidonic acid-induced mouse ear edema; experiment: Arachidonic Acid-Induced Mouse Ear Edema Assay "AAI"; format: in vivo; conditions: topical
Experimental: Topical anti-inflammatory activity is determined by the Arachidonic Acid-Induced Mouse Ear Edema "AAI" Assay, as is well accepted in the art. A modification of the assay described by Young, et al., supra., is performed as follows:
The test materials are prepared as solutions in acetone and applied to the right ears of mice, in groups of eight (8), at hour 0. At hour 1, 2 mg of arachidonic acid in acetone solution is applied to the right ears of the mice to induce an inflammatory response. The left ears of these animals serves as negative controls. At hour 2 the mice are sacrificed; their ears are removed and 8 mm diameter full thickness plugs are cut from the tip of each ear. The plugs are weighed and the mean right and left plug weights are calculated for each group. The results are expressed as percent inhibition of ear plug weight increase relative to a positive control group receiving only acetone at hour 0.

[5] = Isomura et al., Chem. Pharm. Bull. 32(1): 152-165 (1984); cited from earlier work
[6] = test system: adjuvant-induced arthritis (heat-killed Mycobacterium butyricum), hind paw weight increase; experiment: Adjuvant-Induced Arthritis Assay "AI"; format: in vivo; conditions: rat, oral, day 18
Experimental: Anti-inflammatory activity is determined by the Adjuvant-Induced Arthritis ("AI") Assay, as is well accepted in the art. A modification of the assay described by Pearson, et al., supra., is performed as follows: Female Hla:(SD) BR rats weighing 160-180 g are randomly distributed to treatment groups of 12 animals, and given food and water ad libitum. Test materials are prepared fresh weekly as suspensions in carboxymethyl cellulose. The test animals are orally dosed with the suspensions in volumes of 1 ml twice per day Monday through Friday, and with 2 ml once per day on Saturdays and Sundays. […] At time 0, rats are injected intradermally in the proximal quarter of the tail with 0.1 ml of a mineral oil suspension of heat-killed Mycobacterium butyricum (Difco) at a concentration of 10 mg/ml. On day 18 the intensity of swelling in the four paws and tail is estimated visually and scored (0-4 for paws, 0-3 for tail) such that the total maximum score, indicating intense swelling of all four paws and tail, is 19. The animals are then sacrificed; the hind paws of each animal are removed and weighed. The percent inhibition is calculated by comparing the weight increase of the hind paws of the test animals versus the control animals.

[7] = phenylquinone 20 min after dose, 5.0 mg/kg
[8] = phenylquinone 20 min after dose, 15.0 mg/kg
[9] = phenylquinone 120 min after dose, 15.0 mg/kg

Row | SMILES | Inhibition (CI) ([1]; dose 100.0 mg/kg) | Inhibition (HPMN), total lipoxygenase products [2] | Inhibition (PI), writhing responses [3, 7] | Inhibition (PI), writhing responses [3, 8] | Inhibition (PI), writhing responses ([3]; phenylquinone 20 min after dose, 50.0 mg/kg) | Inhibition (PI), writhing responses [3, 9] | Inhibition (AAI), ear plug weight increase ([4]; dose 2.0 mg/ear) | anti-inflammatory activity as reported [5] | Inhibition (CI) ([1]; dose 1.0 mg/kg) | Inhibition (CI) ([1]; dose 10.0 mg/kg) | Inhibition (PI), writhing responses ([3]; phenylquinone 20 min after dose, 0.1 mg/kg) | Inhibition (PI), writhing responses ([3]; phenylquinone 20 min after dose, 1.0 mg/kg) | Inhibition (PI), writhing responses ([3]; phenylquinone 20 min after dose, 1.5 mg/kg) | inhibition of hind paw weight increase ([6]; daily dose 0.4 mg/kg) | inhibition of hind paw weight increase ([6]; daily dose 2.0 mg/kg) | Inhibition (AAI), ear plug weight increase ([4]; dose 0.5 mg/ear) | Inhibition (AAI), ear plug weight increase ([4]; dose 1.0 mg/ear)
1 | CC(C)(C)c1cc(C(=O)c2ccc[nH]2)cc(C(C)(C)C)c1O [B, 2-(3,5-di-t-butyl-4-hydroxybenzoyl)pyrrole, reference compound] | 30% | 50% | 26% | 40% and 52% and 65% | 56% and 38% | 49% | 22% |  |  |  |  |  |  |  |  |  | 
2 | Cc1[nH]ccc1-c1cc(C(C)(C)C)c(O)c(C(C)(C)C)c1 [Formula VIII] |  |  |  |  |  |  |  | inactive |  |  |  |  |  |  |  |  | 
3 | CC(C)(C)c1cc(C(=O)c2cc[nH]c2)cc(C(C)(C)C)c1O [A, 3-(3,5-di-t-butyl-4-hydroxybenzoyl)pyrrole] |  |  | 99% | 97% and 96% |  | 100% | 67% and 69% |  | 24% | 44% | 15% | 61% | 100% | 54% | 70% | 49% | 62%
